Laboratory results taken from patent US8765716B2, “Pharmaceutical composition containing docetaxel-cyclodextrin inclusion complex and its preparing process” (Meridian Laboratories, Inc., priority 2006, dated 2014).
Like-named read-outs stand apart in the source and are kept apart here.

Experiments:
[1] = Inclusion solubilization test; assay type: physicochemical; settings: thermodynamic from solid, docetaxel solubility in pure water, 25° C.
Protocol: Standard curve: 0.67 mg/ml docetaxel solution was prepared by dissolving docetaxel with ethanol, and diluted with pure water into […]˜20.1 μg/ml series solutions, then UV absorption value A was measured under 228 nm. A standard curve was plotted by A against concentration C (mg/ml) (A=13.881C+0.3577 (r=0.9998)).
The excessive docetaxel or inclusion in the pure water was oscillated for 72 h at 25° C.±1° C., filtered and placed still.

[2] = Solid inclusion stability, 5-day acceleration test (light, high temperature, high humidity), HPLC content; assay type: physicochemical
Protocol: (§1) HPLC chromatographic conditions: chromatographic column ODS Cig (250 mm×4.6 mm); mobile phase: water:acetonitrile (53:47); flow rate: 1.0 ml/min; detection wavelength: 230 nm; detection time: 30.00 min; detection sensitivity: 1.0000AUFS.
Samples: docetaxel material; docetaxel/sulfobutyl-β-cyclodextrin inclusion (a, mass ratio of 1:17); docetaxel/hydroxypropyl-sulfobutyl-β-cyclodextrin inclusion (b, mass ratio of 1:17). Docetaxel materials and inclusions were divided into three portions of test samples equally and were subject to light, high temperature and high humidity acceleration tests respectively:
Samples were put in a sealed transparent container and then placed in an illumination box equipped with fluorescent light of 4500±500LX illumination intensity for 5 days. Sampling inspection analysis was conducted, and the test results were compared with the samples of 0 day.
Samples were placed in a clean sealed container at a temperature of 60° C. for 5 days. Sampling inspection analysis was conducted, and the test results were compared with the samples of 0 day.
Samples were placed in a sealed container of constant humidity at temperature of 25° C. and relative humidity of 90±5% for 5 days. Sampling inspection analysis was conducted, and the test results were compared with the samples of 0 day.

[3] = Docetaxel stability test in solution (HPLC assay); assay type: physicochemical; settings: normal saline solution
Protocol: as §1
Under the aforesaid HPLC chromatographic conditions, some docetaxel raw materials; docetaxel/sulfobuty-β-cyclodextrin inclusion (a) with a mass ratio of 1:17 and docetaxel/hydroxypropy-sulfobuty-β-cyclodextrin inclusion (b) with a mass ratio of 1:17 were taken and dissolved with normal saline solution, diluted for 100 times after 30 min ultrasonic wave treatment, placed still, […]

[4] = test system: tubulin; settings: versus paclitaxel; cited from earlier work
[5] = test system: advanced breast carcinoma; settings: treatment of advanced breast carcinoma; cited from earlier work
[6] = cited from earlier work

For `CC(=O)O[C@@]12CO[C@@H]1C[C@H](O)[C@@]1(C)C(=O)[C@H](O)C3=C(C)[C@@H](OC(=O)[C@H](O)[C@@H](NC(=O)OC(C)(C)C)c4ccccc4)C[C@@](O)([C@@H](OC(=O)c4ccccc4)[C@H]21)C3(C)C` (relative stereo) [Docetaxel, [2aR-(2aα,4β,4aβ,6β,9α,(αR*,βS*),11α,12α,12aβ,12bα)]-β-[[(1,1-dimethylethoxy)carbonyl]amino]-α-hydroxyphenyl propionic acid [12b-acetoxy-12-benzoyloxy-2a,3,4,4a,5,6,9,10,11,12,12a,12b-dodecahydro-4,6,11-trihydroxyl-4-a,8,13,13-tetramethyl-5-oxo-7,11-methylene-1H-pentacyclo-ene[3,4]benzo[1,2-b]tetraoxacyclo-9-base]acetate trihydrate], the solubility at 72 h [1] was 2.9 µg/mL, the “Content (%) 0 day” value ([2]; 0 day) was 99.675% and the “Content (%) Hight humitdity” value ([2]; 25° C., relative humidity 90±5%, 5 days) was 83.877%. The “Content (%) High temperature” value ([2]; 60° C., 5 days) was 87.859%, the “Content (%) Light” value ([2]; 4500±500LX, 5 days) was 90.176% and the “Content (%) 0 h” value ([3]; diluted 100 times, 0 h) was 99.675%. The “Content (%) 5 h” value ([3]; diluted 100 times, 5 h) was 99.025%, the “Content (%) 10 h” value ([3]; diluted 100 times, 10 h) was 97.381% and the “Content (%) 24 h” value ([3]; diluted 100 times, 24 h) was 93.433%. The “Content (%) 96 h” value ([3]; diluted 100 times, 96 h) was 86.384%, the half-life ([3]; in solution, read-out: half-life of sample decomposition in solution (converted)) was 15.1 days and the “inhibitory activity of tubulin depolymerization relative to paclitaxel” value [4] was “about 2 times”. The effective ratio [5] was 49%, the “incidence rate of moderate and severe hypersusceptibility” value ([6]; after injection) was 25.9% and the “incidence rate of moderate hypersusceptibility or more” value ([6]; dosage 75 mg/m^2) was 31%. The “incidence rate of moderate hypersusceptibility or more” value ([6]; dosage 100 mg/m^2) was 41.3% and the injection-part reaction rate ([6]; in vivo) was “up to 13.3%”.
